Source: patent publication US11512085B2, “Heteroaryl compound having drug activity” (SHANGHAI DUDE MEDICAL TECHNOLOGY CO., LTD, priority 2017, dated 2022)
pIC50: −log10 of the molar value. Where two headings read alike, the source gives them in different places.

How the values were obtained:
LynA = LynA (Homo sapiens, UniProt P07948); experiment: Btk selectivity over LynA (same kinase method, Btk replaced); type: biochemical; conditions: ratio of IC50 values
Procedure: Other kinases (e.g., inhibitory activity of Lck and LynA is determined by replacing the Btk with various kinases and performing operations the same as that in the above method).

Btk = Btk (Homo sapiens, UniProt Q06187); experiment: Determination of Btk enzyme inhibitory activity; type: biochemical; conditions: 2 nM BTK
Procedure: Determination of Btk Enzyme Inhibitory Activity
Buffer solution: 50 mM Hepes pH 7.0, 0.1 mM Orthovanadate, 5 mM MgCl2, 0.01% of BSA;
1 mM TK-peptide, […], 50 nM SEB;
Pre-incubation for 15 minutes;
Reaction at 23° C. for 90 minutes;
Color Development Reaction:
Developing buffer solution: 50 mM Hepes pH8.0, 0.8 M KF, 20 mM EDTA, 0.01% BSA;
Reaction at 23° C. for 60 minutes;

TMD8 = experiment: In vitro tumor cell proliferation (CellTiter-Glo), TMD8; type: cell-based; conditions: Homo sapiens, TMD8, 72 h; read-out: Growth IC50
Procedure: (§1) Biological Embodiment 8: Study on Effects of Active Compounds for Inhibiting In Vitro Tumor Cell Proliferation
(§2) Promega CellTiter-Glo cell activity detection kit by luminescence (Promega-G7573).
(§3) Tumor cell lines were cultured in a 5% of CO2 incubator at 37° C. according to respective culture conditions; and periodic passage was performed, and cells positioned in a logarithmic phase were taken for planking.
(§4) 3) 90 μL of cell suspension was added into each well of the culture plate, and a culture solution containing no cell was added into blank control;
(§5) 4) the culture plate was cultured overnight in the 5% of CO2 incubator having relative humidity of 100% at 37° C.
(§6) Preparation of a 400× compound storage plate: the compound was diluted from the maximum concentration gradient to the lowest concentration with DMSO. […]
(§7) The following steps were performed according to the specification of the Promega CellTiter-Glo cell activity detection kit by luminescence (Promega-G7573). […]
(§8) 9) the luminescence signal was detected on the 2104 EnVision plate reader.

B cells = experiment: B cell activation (anti-human IgM, CD69 staining); type: cell-based; conditions: concentration of 0.1 uM
Procedure: Biological Embodiment 3: Influences of In-Vitro Test Compounds on PBMC/B/T Cell Activation
4.3 Isolation of B Cells and T Cells
Cell Isolation Programs Shall Refer to […] Kits
4.4.1 Activation of B Cells
The co-culture system is as follows:
Antibody Staining and Data Analysis
Antibody staining was performed within 24 hours […] according to a standard method.
4.5.1 Activation of PBMC and B Cells
LIVE/DEAD Fixable Violet Dead Cell Stain Kit

[1] = Human liver microsome stability test; type: in vitro ADME
Procedure: Preparation of Buffer Solution:
1. 100 mM potassium phosphate buffer solution, pH of 7.4
Preparation of Test Compound Solution:
1. A test compound solution (10 mM, 5 μL) was diluted with a methanol solution (495 μL), and a 100 μM solution was prepared;
2. Preparation of a working solution: the above solution (50 μL) was diluted with the potassium phosphate buffer solution (450 μL, 100 mM) so as to obtain diluents (10 μM).
NADPH Regeneration System (Final Concentration 1 Unit/mL of Isocitrate Dehydrogenase):
1. beta-NADP, supplier: sigma Cat. No. N0505
3. isocitrate dehydrogenase, supplier: sigma Cat. No. 12002
Cold acetonitrile containing 100 ng/mL of tolbutamide and 100 ng/mL of labetalol serves as an internal standard
1. a 10 μL/well of working solution was added into plates (T0, T5, T10, T20, T30, T60, NCF60) beyond the blank;
2. a 80 μL/well of microsome solution was added, and incubation was performed at 37° C. for 10 min;
3. a 10 μL of 100 mM phosphate buffer solution was added into each well of an NCF60 plate, the plate was placed in a warm bath at 37° C., and timing started;
4. a 10 μL/well of NADPH regeneration system was added after preheating, and a reaction started;
5. incubation was performed at 37° C., and timing started
6. a 300 μL/well of stop solution was added (4° C., containing 100 ng/mL of tolbutamide and 100 ng/mL of labetalol) to end the reaction;
7. the plate was shaken for 10 min;
8. centrifugation was performed at 4° C. at a rotation speed of 4000 rpm; and
9. sample LC/MS/MS detection was performed.
Data Analysis Use Equation of First Order Kinetics to Calculate t½ and Clint(Mic): […]
equation of first order kinetics: […]

OCI-LY19 = experiment: In vitro tumor cell proliferation (CellTiter-Glo), OCI-LY19; type: cell-based; conditions: Homo sapiens, OCI-LY19, 72 h; read-out: Growth IC50
Procedure: as §1, §2, §3, §4, §5, §6, §7, §8

[2] = Pharmacokinetic study, single intravenous and oral dose, beagle dogs; type: in vivo; conditions: male, blood; for AUC(0-t) / Cmax / Tmax / half-life: Dog; for half-life: read-out: T½ (converted)
Procedure: Biological Embodiment 7: Pharmacokinetic Study of Performing Respective Single Intravenous and Oral Dose Delivery with Test Samples on SD Rats and Beagle Dogs
6 male beagle dogs were selected, grouped and administered according to an experimental design table; 3 animals in the first group were intravenously administered once on the day of administration, wherein the administration dosage was 2 mg/kg, and the administration volume was 2.5 mL/kg; 3 animals in the second group were orally intragastrically administered once on the day of administration, wherein the administration dosage was 30 mg/kg, and the administration volume was 5 mL/kg.
All the animals were subjected to cage edge observation twice every day so as to determine whether the animals got ill or had injuries or death and other situations and whether supply of foods and water was sufficient. In the test process, all administered animals were subjected to detailed clinical observation before administration and at blood collection points.
Before administration (0 h) and within 0.083 h, 0.25 h, 0.5 h, 1 h, 2 h, 4 h, 6 h, 8 h and 24 h after administration, blood samples were collected from femoral veins at 10 time points so as to be used for blood concentration test. Experimental design table

LynA, sequence (P07948 whole entry): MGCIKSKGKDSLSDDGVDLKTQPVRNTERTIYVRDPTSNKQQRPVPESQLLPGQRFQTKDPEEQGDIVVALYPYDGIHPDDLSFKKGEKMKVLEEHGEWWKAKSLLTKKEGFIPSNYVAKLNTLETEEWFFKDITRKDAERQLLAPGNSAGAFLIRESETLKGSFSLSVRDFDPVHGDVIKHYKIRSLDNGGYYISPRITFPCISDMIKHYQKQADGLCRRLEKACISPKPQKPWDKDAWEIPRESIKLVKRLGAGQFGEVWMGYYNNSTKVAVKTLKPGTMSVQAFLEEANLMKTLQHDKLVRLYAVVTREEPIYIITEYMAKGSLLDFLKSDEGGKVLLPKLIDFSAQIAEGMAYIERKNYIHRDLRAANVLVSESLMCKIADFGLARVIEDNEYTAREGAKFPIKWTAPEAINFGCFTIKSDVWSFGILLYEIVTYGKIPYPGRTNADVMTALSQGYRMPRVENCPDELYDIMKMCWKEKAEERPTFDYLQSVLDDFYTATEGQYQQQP
Btk, sequence (Q06187 whole entry): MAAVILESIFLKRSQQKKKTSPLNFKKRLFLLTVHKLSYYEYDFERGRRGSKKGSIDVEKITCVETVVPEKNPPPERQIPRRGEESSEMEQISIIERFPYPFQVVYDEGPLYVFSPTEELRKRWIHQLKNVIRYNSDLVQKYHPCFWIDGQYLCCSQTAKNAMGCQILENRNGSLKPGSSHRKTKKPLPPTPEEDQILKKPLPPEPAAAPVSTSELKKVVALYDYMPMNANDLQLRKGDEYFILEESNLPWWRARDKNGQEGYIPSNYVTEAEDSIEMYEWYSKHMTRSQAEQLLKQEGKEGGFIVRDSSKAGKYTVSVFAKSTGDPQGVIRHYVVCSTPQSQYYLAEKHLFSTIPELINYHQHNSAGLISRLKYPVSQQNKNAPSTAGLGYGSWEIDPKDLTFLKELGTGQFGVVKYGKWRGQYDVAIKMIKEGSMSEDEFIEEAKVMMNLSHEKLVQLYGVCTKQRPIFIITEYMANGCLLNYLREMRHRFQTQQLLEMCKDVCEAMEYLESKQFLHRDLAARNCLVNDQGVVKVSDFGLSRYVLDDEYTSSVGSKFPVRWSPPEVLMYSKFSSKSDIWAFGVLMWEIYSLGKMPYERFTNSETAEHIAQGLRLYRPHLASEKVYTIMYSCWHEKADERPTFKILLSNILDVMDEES

Compound: C=CC(=O)NN1CCCC(n2nc(-c3ccc(Oc4ccccc4)cc3)c3c(N)ncnc32)C1 (stereo not shown) [Embodiment 6, N-(3-(4-amino-3-(4-phenoxyphenyl)-1H-pyrazolo[3,4-D]pyrimidine-1-yl)-1-piperidyl)-acrylamide]
- LynA[IC50]/Btk[IC50] (LynA): 137
- pIC50 (Btk): 9.57
- pIC50 (TMD8): 9.07
- B cell activity inhibition effect (B cells): obvious B cell activity inhibition effects
- Remaining (*NCF = 60 min) ([1]; HLM 0.5, 60 min, no co-factor): 105.9%
- Remaining (T = 60 min) ([1]; HLM 0.5, 60 min with NADPH regenerating system): 0.2%
- half-life at 1 µM ([1]; human, liver microsomes, pH 7.4, HLM 0.5 (0.5 mg protein/mL)): 4.3 min
- microsomal CLint at 1 µM ([1]; human, liver microsomes, pH 7.4, HLM 0.5, read-out: CLint(mic)): 325 µL/min/mg
- CLint scaled at 1 µM ([1]; human, liver microsomes, pH 7.4, HLM 0.5, scaled from CLint(mic)): 292 mL/min/kg
- pIC50 (OCI-LY19): 5.17
- AUC(0-t) ([2]; IV, 2 mg/kg): 888 ng·h/mL
- Cmax ([2]; IV, 2 mg/kg): 1230 ng/mL
- Tmax ([2]; IV, 2 mg/kg): 4.98 min
- half-life ([2]; IV, 2 mg/kg): 48 min
- AUC(0-t) ([2]; PO, 30 mg/kg): 7420 ng·h/mL
- Cmax ([2]; PO, 30 mg/kg): 3830 ng/mL
- Tmax ([2]; PO, 30 mg/kg): 49.8 min
- half-life ([2]; PO, 30 mg/kg): 45 min
- bioavailability ([2]; dog, oral, 30 mg/kg): 54.6%
